According to patent US20260258064A1 (SIRONAX LTD., priority 2023, published 2026):

molecular target: T1, SARM1 (50-724) (Homo sapiens, UniProt Q6SZW1); experiment: SARM1 (50-724) enzymatic assay (LC-MS/MS); type: biochemical; settings: Purified SARM1 (50-724) 2 nM, NMN as activator, NAD+ as substrate, 1 h at room temperature, read-out: IC50 (SARM1 inhibitory activity)
T1 construct: Purified SARM1 (50-724) with a final concentration of 2 nM was pre-incubated with a test compound
T1 sequence (Q6SZW1 50-724): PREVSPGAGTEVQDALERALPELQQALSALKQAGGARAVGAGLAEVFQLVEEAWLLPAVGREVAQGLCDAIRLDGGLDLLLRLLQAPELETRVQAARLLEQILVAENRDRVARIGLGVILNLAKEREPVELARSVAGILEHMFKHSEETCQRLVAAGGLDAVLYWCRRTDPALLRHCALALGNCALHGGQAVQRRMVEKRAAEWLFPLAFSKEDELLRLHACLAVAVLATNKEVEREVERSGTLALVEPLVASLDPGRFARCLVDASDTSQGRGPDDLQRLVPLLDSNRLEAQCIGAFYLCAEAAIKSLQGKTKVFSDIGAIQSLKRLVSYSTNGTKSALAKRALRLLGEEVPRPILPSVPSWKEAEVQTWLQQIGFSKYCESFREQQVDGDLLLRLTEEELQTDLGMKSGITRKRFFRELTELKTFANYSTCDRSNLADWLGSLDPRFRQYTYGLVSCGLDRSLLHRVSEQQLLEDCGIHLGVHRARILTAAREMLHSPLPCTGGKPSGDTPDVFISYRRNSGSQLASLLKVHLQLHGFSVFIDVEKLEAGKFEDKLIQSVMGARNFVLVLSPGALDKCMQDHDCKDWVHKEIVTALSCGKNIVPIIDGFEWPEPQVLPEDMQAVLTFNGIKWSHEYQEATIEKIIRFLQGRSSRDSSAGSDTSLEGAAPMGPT
Protocol: An enzymatic assay was performed in a 384-well plate using Dulbecco's phosphate-buffered saline (PBS) as the reaction buffer. Purified SARM1 (50-724) with a final concentration of 2 nM was pre-incubated with a test compound at […] final assay concentration for 15 min at room temperature. The reaction was initiated by adding a mixture of […] nicotinamide mononucleotide (NMN) as activator and […] NAD^+ as substrate. After 1 h of incubation at room temperature, the reaction was terminated with 10 times volume of 70% acetonitrile, and then centrifuged at 3800 rpm for 10 min. The samples were analyzed using LC-MS/MS after diluted to a proper concentration by 10 mM ammonium acetate (pH 9.75).
In Table 2, activity is provided as follows: A: IC50≤100 nM; B: 100 nM<IC50≤500 nM; C: 500 nM<IC50≤1000 nM; D: IC50>1000 nM.

SMILES | IC50 [nM]
Cc1ccc2[nH]c(-c3ccc(C#N)n3C3CCCC3)nc2c1 [Compound 19, 1-cyclopentyl-5-(5-methyl-1H-1,3-benzodiazol-2-yl)pyrrole-2-carbonitrile] | 100 to 500
Cc1ccc2[nH]c(-c3cc(C(N)=O)cn3C3CCCC3)nc2c1 [Compound 20, 1-cyclopentyl-5-(5-methyl-1H-benzo[d]imidazol-2-yl)-1H-pyrrole-3-carboxamide] | 500 to 1000
Cc1ccc2[nH]c(-c3ccc(C(N)=O)n3C3CCCC3)nc2c1 [Compound 24, 1-cyclopentyl-5-(5-methyl-1H-1,3-benzodiazol-2-yl)pyrrole-2-carboxamide] | > 1000
O=C1OCC(c2nc3cc(C(F)(F)F)ccc3[nH]2)=C1c1cccc(Cl)c1Cl [Compound 25, 3-(2,3-Dichlorophenyl)-4-(5-(trifluoromethyl)-1H-benzo[d]imidazol-2-yl)furan-2(5H)-one] | > 1000
Cc1ccc2[nH]c(-n3[nH]c(=O)nc3-c3cccc(Cl)c3Cl)nc2c1 [Compound 26, 5-(2,3-dichlorophenyl)-1-(5-methyl-1H-benzo[d]imidazol-2-yl)-1,2-dihydro-3H-1,2,4-triazol-3-one] | > 1000
Cc1ccc2[nH]c(-n3c(-c4cccc(Cl)c4Cl)noc3=O)nc2c1 [Compound 29, 3-(2,3-dichlorophenyl)-4-(5-methyl-1H-benzo[d]imidazol-2-yl)-1,2,4-oxadiazol-5 (4H)-one] | > 1000
O=c1[nH]nc(-c2cccc(Cl)c2Cl)n1-c1nc2cc(C(F)(F)F)ccc2[nH]1 [Compound 30, 3-(2,3-Dichlorophenyl)-4-[5-(trifluoromethyl)-1H-benzimidazol-2-yl]-1H-1,2,4-triazol-5-one] | > 1000
Cc1ccc2[nH]c(-n3c(-c4cccc(Cl)c4Cl)n[nH]c3=O)nc2c1 [Compound 31, 5-(2,3-dichlorophenyl)-4-(5-methyl-1H-benzo[d]imidazol-2-yl)-2,4-dihydro-3H-1,2,4-triazol-3-one] | > 1000
O=c1onc(-c2cccc(Cl)c2Cl)n1-c1nc2cc(C(F)(F)F)ccc2[nH]1 [Compound 32] | > 1000
Cc1ccc2[nH]c(-c3[nH]nnc3C3CCCC3)nc2c1 [Compound 33, 2-(4-cyclopentyl-1H-1,2,3-triazol-5-yl)-5-methyl-1H-benzo[d]imidazole] | > 1000
O=c1[nH]nc(-c2nc3cc(C(F)(F)F)ccc3[nH]2)n1-c1cccc(Cl)c1Cl [Compound 36, 4-(2,3-dichlorophenyl)-5-(5-(trifluoromethyl)-1H-benzo[d]imidazol-2-yl)-2,4-dihydro-3H-1,2,4-triazol-3-one] | 100 to 500
N#Cc1c(-n2c(-c3cccc(Cl)c3Cl)n[nH]c2=O)[nH]c2ccc(C(F)(F)F)cc12 [Compound 41, 2-(3-(2,3-dichlorophenyl)-5-oxo-1,5-dihydro-4H-1,2,4-triazol-4-yl)-5-(trifluoromethyl)-1H-indole-3-carbonitrile] | > 1000
Clc1cccc(-n2cnnc2-c2nc3cc(Br)ccc3[nH]2)c1Cl [Compound 49, 5-bromo-2-(4-(2,3-dichlorophenyl)-4H-1,2,4-triazol-3-yl)-1H-benzo[d]imidazole] | ≤ 100
Cc1c(Cl)cncc1-n1cnnc1-c1nc2cc(C(F)(F)F)ccc2[nH]1 [Compound 58] | ≤ 100
Cc1nsc(-n2cnnc2-c2nc3cc(C(F)(F)F)ccc3[nH]2)c1Cl [Compound 69] | 100 to 500
NC(=O)c1nnc(-c2nc3cc(C(F)(F)F)ccc3[nH]2)n1-c1cccc(Cl)c1Cl [Compound 77] | 100 to 500
Cn1cc(-c2nc(Cl)c(Cl)s2)c(-c2nc3cc(C(F)(F)F)ccc3[nH]2)cc1=O [Compound 97] | > 1000
CSc1nnc(-c2nc3cc(C(F)(F)F)ccc3[nH]2)n1-c1cccc(Cl)c1Cl [Compound 116] | 100 to 500

SMILES | IC50 [nM]
FC(F)(F)c1ccc2[nH]c(-c3nnc(OC4CSC4)n3-c3cccc(Cl)c3Cl)nc2c1 [Compound 131] | > 1000
Clc1cccc(-n2cnnc2-c2nc3cc(C4CCCO4)ccc3[nH]2)c1Cl (centres unmarked) [Compound 136, 2-(4-(2,3-dichlorophenyl)-4H-1,2,4-triazol-3-yl)-5-(tetrahydrofuran-2-yl)-1H-benzo[d]imidazole] | ≤ 100
CS(=O)(=O)CCc1nnc(-c2nc3cc(C(F)(F)F)ccc3[nH]2)n1-c1cccc(Cl)c1Cl [Compound 138, 2-(4-(2,3-dichlorophenyl)-5-(2-(methylsulfonyl)ethyl)-4H-1,2,4-triazol-3-yl)-5-(trifluoromethyl)-1H-benzo[d]imidazole] | ≤ 100
CS(=O)(=O)NCc1nnc(-c2nc3cc(C(F)(F)F)ccc3[nH]2)n1-c1cccc(Cl)c1Cl [Compound 139, N-((4-(2,3-dichlorophenyl)-5-(5-(trifluoromethyl)-1H-benzo[d]imidazol-2-yl)-4H-1,2,4-triazol-3-yl)methyl)methanesulfonamide] | ≤ 100
CC(O)C(C)(C)c1ccc2[nH]c(-c3nncn3-c3cccc(Cl)c3Cl)nc2c1 (centres unmarked) [Compound 140, 3-(2-(4-(2,3-dichlorophenyl)-4H-1,2,4-triazol-3-yl)-1H-benzo[d]imidazol-5-yl)-3-methylbutan-2-ol] | ≤ 100
FC(F)(F)c1cc2nc(-c3nncn3-c3cccc(Cl)c3Cl)[nH]c2cn1 [Compound 142, 2-(4-(2,3-dichlorophenyl)-4H-1,2,4-triazol-3-yl)-6-(trifluoromethyl)-3H-imidazo[4,5-c]pyridine] | > 1000
CNC(=O)Cc1nnc(-c2nc3cc(C(F)(F)F)ccc3[nH]2)n1-c1cccc(Cl)c1Cl [Compound 143, 2-(4-(2,3-Dichlorophenyl)-5-(5-(trifluoromethyl)-1H-benzo[d]imidazol-2-yl)-4H-1,2,4-triazol-3-yl)-N-methylacetamide] | ≤ 100
OC1CN(Cc2nnc(-c3nc4cc(C(F)(F)F)ccc4[nH]3)n2-c2cccc(Cl)c2Cl)C1 [Compound 144, 1-((4-(2,3-dichlorophenyl)-5-(5-(trifluoromethyl)-1H-benzo[d]imidazol-2-yl)-4H-1,2,4-triazol-3-yl)methyl)azetidin-3-ol] | ≤ 100
CCc1nnc(-c2nc3cc(C(F)(F)F)ccc3[nH]2)n1-c1cccc(Cl)c1Cl [Compound 145, 2-(4-(2,3-dichlorophenyl)-5-ethyl-4H-1,2,4-triazol-3-yl)-5-(trifluoromethyl)-1H-benzo[d]imidazole] | ≤ 100
CC(C)(C)c1ccc2[nH]c(-c3nncn3-c3nc(O)ccc3Cl)nc2c1 [Compound 148, 6-(3-(5-(tert-butyl)-1H-benzo[d]imidazol-2-yl)-4H-1,2,4-triazol-4-yl)-5-chloropyridin-2(1H)-one] | ≤ 100
FC(F)(F)c1ccc2[nH]c(-c3nncn3-c3c(Cl)cccc3Cl)nc2c1 [Compound 149, 2-(4-(2,6-dichlorophenyl)-4H-1,2,4-triazol-3-yl)-5-(trifluoromethyl)-1H-benzo[d]imidazole] | ≤ 100
COC(C)(c1ccc2[nH]c(-c3nncn3-c3ccc(F)c(F)c3Cl)nc2c1)C1COC1 (centres unmarked) [Compound 150, 2-(4-(2-chloro-3,4-difluorophenyl)-4H-1,2,4-triazol-3-yl)-5-(1-methoxy-1-(oxetan-3-yl)ethyl)-1H-benzo[d]imidazole] | 100 to 500
CCC(O)(CC)c1ccc2[nH]c(-c3nncn3-c3ccc(F)c(F)c3Cl)nc2c1 [Compound 151, 3-(2-(4-(2-chloro-3,4-difluorophenyl)-4H-1,2,4-triazol-3-yl)-1H-benzo[d]imidazol-5-yl)pentan-3-ol] | ≤ 100
CC(C#N)c1ccc2[nH]c(-c3nncn3-c3ccc(F)c(F)c3Cl)nc2c1 (centres unmarked) [Compound 152, 2-(2-(4-(2-chloro-3,4-difluorophenyl)-4H-1,2,4-triazol-3-yl)-1H-benzo[d]imidazol-5-yl)propanenitrile] | ≤ 100
C[S+]([O-])c1ccc2[nH]c(-c3nncn3-c3cccc(Cl)c3Cl)nc2c1 (centres unmarked) [Compound 153, 2-(4-(2,3-dichlorophenyl)-4H-1,2,4-triazol-3-yl)-5-(methylsulfinyl)-1H-benzo[d]imidazole] | 100 to 500
CC1(c2ccc3[nH]c(-c4nncn4-c4cccc(Cl)c4Cl)nc3c2)CCO1 (centres unmarked) [Compound 154, 2-(4-(2,3-dichlorophenyl)-4H-1,2,4-triazol-3-yl)-5-(2-methyloxetan-2-yl)-1H-benzo[d]imidazole] | ≤ 100
COC(C)c1ccc2[nH]c(-c3nncn3-c3ccc(F)c(F)c3Cl)nc2c1 (centres unmarked) [Compound 155, 2-(4-(2-chloro-3,4-difluorophenyl)-4H-1,2,4-triazol-3-yl)-5-(1-methoxyethyl)-1H-benzo[d]imidazole] | ≤ 100
